Among the data in ChEMBL document CHEMBL3351314, “Neutrophil elastase inhibitors as potential anti-inflammatory therapies” (ACS Med Chem Lett, 2014) are EC50 and IC50 values, retold here.

Assay [1] concerns the target T1, Neutrophil elastase (Homo sapiens, UniProt P08246).
T1 sequence (P08246 whole entry): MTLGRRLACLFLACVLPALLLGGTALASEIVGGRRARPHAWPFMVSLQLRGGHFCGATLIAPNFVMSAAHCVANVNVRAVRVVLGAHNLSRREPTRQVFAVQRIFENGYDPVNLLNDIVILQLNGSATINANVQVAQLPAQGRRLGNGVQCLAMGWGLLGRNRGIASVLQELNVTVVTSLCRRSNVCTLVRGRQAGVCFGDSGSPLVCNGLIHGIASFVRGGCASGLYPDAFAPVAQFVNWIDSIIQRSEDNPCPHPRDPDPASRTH
The assay is described as follows: Inhibition of neutrophil elastase in human plasma using MeOSuc-Ala-Ala-Pro-Val-AMC as substrate by fluorescence assay.

Assay [2] has as its target T1, Neutrophil elastase. The assay can be described thus: Inhibition of human neutrophil elastase using MeOSuc-Ala-Ala-Pro-Val-AMC as substrate after 15 mins by fluorescence assay.

For `N#Cc1ccc(C2C3=C(CCC3=O)N(c3cccc(C(F)(F)F)c3)C(=O)N2CC(=O)N2CCC2)cc1` (centres undefined), the EC50 at Neutrophil elastase [1] amounted to 4 nM. This molecule also registered an IC50 on Neutrophil elastase [2] of 3.7 nM.
For `CS(=O)(=O)c1cc(C#N)ccc1C1C2=C(CCC2=O)N(c2cccc(C(F)F)c2)C(=O)N1C(=O)N1CC1` (centres undefined) the same measures were under 1 nM and under 1 nM.
